Results taken from patent US20200323225A1, “LIPASE INHIBITORS TO PREVENT RANCIDITY IN EXPRESSED HUMAN MILK DURING STORAGE” (STC.UNM, priority 2017, published 2020).

Tests used:
[1] = biological target: T1, LPL (Homo sapiens, UniProt P06858); test: LPL activity in milk spiked with 6 pmol LPL, with increasing levels of Orlistat; format: biochemical; conditions: 10 μM Orlistat, monitored over 20 min (FIG. 3)
T1 sequence (P06858 28-475): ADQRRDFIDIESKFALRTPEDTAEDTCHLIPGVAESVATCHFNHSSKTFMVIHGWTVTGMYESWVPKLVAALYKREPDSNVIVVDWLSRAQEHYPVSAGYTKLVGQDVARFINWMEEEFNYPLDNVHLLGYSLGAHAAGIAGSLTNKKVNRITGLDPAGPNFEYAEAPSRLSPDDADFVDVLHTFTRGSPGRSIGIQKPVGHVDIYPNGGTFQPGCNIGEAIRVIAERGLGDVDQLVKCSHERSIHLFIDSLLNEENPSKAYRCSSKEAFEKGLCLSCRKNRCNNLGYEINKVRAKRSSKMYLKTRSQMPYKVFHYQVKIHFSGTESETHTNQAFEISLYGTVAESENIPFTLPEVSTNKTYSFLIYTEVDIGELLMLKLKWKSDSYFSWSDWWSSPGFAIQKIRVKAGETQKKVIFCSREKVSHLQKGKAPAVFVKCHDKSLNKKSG
Method: FIG. 3 is a graph showing measurement of LPL activity in milk spiked with 6 pmol LPL in the absence or presence of LPL inhibitor, Orlistat.
(§1) LPL activity in milk spiked with 6 pmol LPL and increasing levels of Orlistat (an LPL inhibitor) was monitored over the course of 20 min (FIG. 3). […] Raw milk samples were also treated with this level of Orlistat (10 μM) (FIG. 4).

[2] = test system: LPL; test: Lipase activity inhibition in raw milk samples after incubation with Orlistat; format: biochemical; conditions: raw milk samples (n=2); 10 μM Orlistat; incubated 1 h (FIG. 4)
Method: as §1, with “FIG. 4 is a graph sowing lipase activity inhibition after incubation with Orlistat. […] LPL activity” for “LPL activity”

reduction in LPL activity [1]: most significant reduction in LPL
decrease in lipase activity (LPL) [2]: 22%
SMILES: CCCCCCCCCCC[C@@H](C[C@@H]1OC(=O)[C@H]1CCCCCC)OC(=O)[C@H](CC(C)C)NC=O [Orlistat]
